Consider four compounds from paper doi:10.1101/2024.10.11.617883, “A Streamlined High-Throughput LC-MS Assay for Quantifying Peptide Degradation in Cell Culture” (bioRxiv, 2024).

Where two headings read alike, the source gives them in different places.

Data set [1] can be described thus: Retention on the reverse-phase LC-MS column. Type of data set: physicochemical. How it is done:
The column temperature was a constant 29 °C. The mass spectrometer was operated in positive ion mode.
Since salts from cell culture media adversely impact ionization and foul the MS, we send the mobile phase from the first 1.5 minutes of LCMS to waste prior to ionization to prevent salt accumulation in the mass spectrometer. Accordingly, peptides and internal standards which elute before the gradient begins are not suitable for quantification since they will not be analyze by the mass spectrometer. N-terminal acetylation, the addition of a phenylalanine, or β-homophenylalanine improves retention time by increasing they hydrophobicity of the polypeptide, which increases the affinity to the column (Figure 2A). After 48 hours of degradation, three internal standards candidates had both good retention times and less than 10% degradation (Figure 2B): 1) Ac-βA6-Amide, 2) NH2-βFβA6-Amide, and 3) Ac-FβA6-Amide. The ability of molecules to be identified in mass spectrometry is dependent on their propensity to become ionized, and the Ac-βA6-Amide standard was excluded due to weak signal intensity of the LC-MS (not shown), likely due to the lack of charged groups. […]

The conditions of data set [2]: human, cells or culture medium.
Description: (§1) Human mesenchymal stem cells (hMSCs) (Rooster Bio, LOT 310368) at passage 3 were seeded into 24 well plates at a seeding density of 75,000 cells per well in 1mL of RoosterBasal-MSC-CC (RoosterBio, SU-022) containing RoosterBooster-MSC (RoosterBio SU-003). After 24 hour the media was changed, and peptide library AcβA-RGEFV-X-NH2 was added to the cell media for a final concentration of 37 μM per peptide. Each Library was tested in three times, each in triplicate with three technical repeats for a total of 27 wells. 40 μl samples were collected from the media at hours 0, 1, 4, 8, 24, and 48 in duplicate.
(§2) In-between timepoints, one set of samples was loaded directly within the LC-MS and measured as soon as possible, then stored at 4°C. The second set of samples was immediately frozen at −80°C. After 48 hours, samples were kept frozen and thawed just prior to LC-MS, and 4μL of acetic acid was added to each well. After three weeks the samples were tested again.
(§3) From each sample, 10 μL of crude solution was introduced by the LC-MS through an Thermo Scientific Vanquish LC System (Thermo Fisher Scientific) which outputted to a Thermo Scientific LTQ XL Linear Ion Trap Mass Spectrometer (Thermo Fisher Scientific). The sampled mixture was trapped on a column (ProntoSIL C18 AQ, 120 Å, 3 μm, 2.0 × 50 mm HPLC Column, PN 0502F184PS030, MAC-MOD Analytical Inc.). The samples were loaded onto the column with a solvent containing acetonitrile/water, 5:95 (v/v) containing 1% acetic acid at a flow rate of 300 μL/min and held for one minute. The sample was then eluted from the column with a linear gradient of 5–40% Solvent B (1% acetic acid in acetonitrile) at the same flow rate for five minutes. This was followed by a 1 min ramp up to 100% solvent B, where it was re-equilibrated with solvent A (1% acetic acid) to 5% solvent B over the course of 1 min and held there for 2 min. The column temperature was a constant 29 °C. The mass spectrometer was operated in positive ion mode. Using a heated ESI, the source voltage was set to 4.1 kV, and the capillary temperature was 350 °C.
(§4) Data analysis was performed on Xcalibur Software (Thermo Scientific). Peptides were identified automatically using the Thermo Xcalibur Processing Setup window where the mass (m/z) ±0.5 AMU and expected retention times for each quantified peptide were inputted. This was later used to isolate individual peptide species from the total ion count (TIC) trace using the Thermo Xcalibur Quan Setup window, where the area under the curve was calculated and visually inspected for accuracy. […] The integrated peak area of the peptide of interest was divided by the NH2-βF(βA)6-Amide internal standard to create an area ratio. Relative amounts of a peptide of peptide were then calculated by normalized all values to their corresponding time zero area ratio. Calculated data was visualized using RStudio.
For data set [3], the system named is human mesenchymal stem cells (hMSCs).
Description: as §1, §2, §3, §4
A short description of data set [4]: in vitro. As to conditions: human, cells or culture medium.
Description: as §1, §2, §3, §4

As for `NCCC(=O)NCCC(=O)NCCC(=O)NCCC(=O)NCCC(=O)NCCC(N)=O` [NH2-(βA)6-Amide], in data set [1] (ProntoSIL C18 AQ, gradient begins after 1 min at 5% B, first 1.5 minutes sent to waste), the “affinity to the LC-MS column (retention)” value is given as “eluting before the chromatography gradient begins”. As to `NC(=O)CCNC(=O)CCNC(=O)CCNC(=O)CCNC(=O)CCNC(=O)CCNC(=O)C[C@@H](N)Cc1ccccc1` [NH2-βFβA6-Amide], the peptide elution time in data set [1] (ProntoSIL C18 AQ 2.0 x 50 mm, 5% B held 1 min then 5-40% acetonitrile (1% acetic acid) over 5 min, 300 μL/min, 29 °C, retention tied to hydrophobicity and column affinity) worked out at 2.68 min. In data set [2], the metabolised at 48 h was below 10% and the share remaining at 48 h is above 92%. In addition, the “time stable in cell culture” value in data set [3] came to 48 h.

The compound `CC(=O)NCCC(=O)NCCC(=O)NCCC(=O)NCCC(=O)NCCC(=O)NCCC(N)=O` [Ac-βA6-Amide] showed a metabolised at 48 h in data set [4] below 10%.

In data set [4], `CC(=O)N[C@@H](Cc1ccccc1)C(=O)NCCC(=O)NCCC(=O)NCCC(=O)NCCC(=O)NCCC(=O)NCCC(N)=O` [Ac-FβA6-Amide] had a metabolised at 48 h below 10%.
